Test results published in PubChem BioAssay (NCI).
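Each compound was tested at five concentrations against cells in 96-well plates for 48 hours. The concentration for 50% growth inhibition is given as GI50. The concentration for full growth arrest is given as TGI.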

Tests used:
Experiment in all cases: NCI tumour cell line growth inhibition, 48 h
LOX IMVI melanoma = system: LOX IMVI melanoma
MDA-MB-435 = system: MDA-MB-435
NCI-H460 lung = system: NCI-H460 lung
SK-MEL-28 melanoma = system: SK-MEL-28 melanoma
K-562 leukemia = system: K-562 leukemia

Structure (SMILES) | TGI (LOX IMVI melanoma) [µM] | TGI (MDA-MB-435) [µM] | TGI (NCI-H460 lung) [µM] | TGI (SK-MEL-28 melanoma) [µM] | TGI (K-562 leukemia) [µM] | GI50 (K-562 leukemia) [µM] | GI50 (LOX IMVI melanoma) [µM] | GI50 (NCI-H460 lung) [µM] | GI50 (SK-MEL-28 melanoma) [µM]
CC(C)(C)OC(=O)NC1CCCC1C(O)(C1=CCCC1)C1=CCCC1 (stereo unspecified) | > 100 | > 100 | > 100 | > 100 |  |  |  |  | 
CCOC(=O)CN=C1Nc2ccccc2C(=O)N2CSCC12 (stereo unspecified) | > 100 | > 100 | > 100 | > 100 | > 100 |  |  |  | 
N#CC(c1nc2ccccc2s1)c1nc(Cl)ncc1Br (stereo unspecified) | > 100 | > 100 | > 100 | > 100 |  |  |  |  | 
N#Cc1nc(C(F)(F)F)oc1N | > 100 | > 100 | > 100 | > 100 | > 100 |  |  |  | 
COC(=O)c1ccc(CCC2=CC(=O)C(Br)=CC2=O)cc1 | 33.3 | 31.2 | 34.5 | 31.1 | 4.84 |  |  |  | 
Cc1ccc(S(=O)(=O)NC(=O)NC(Cc2ccccc2)C(=O)O)cc1 (stereo unspecified) | > 100 |  | > 100 | > 100 | > 100 |  |  |  | 
CCSCC(=O)N1CCc2c([nH]c3ccccc23)C1=O | > 100 | > 100 | > 100 | > 100 | > 100 |  |  |  | 
CC(=O)Nc1ccc(N2C(=O)CS(=O)(=O)C2c2cccc(Oc3ccccc3)c2)cc1 (stereo unspecified) | 35.5 | 48.5 | 34.7 | 48.3 | 55 |  |  |  | 
COc1cc2c(cc1OC)C1=Cc3ccc(OC)c(OC)c3C(C#N)N1CC2 (stereo unspecified) |  | 82.3 | > 100 | > 100 |  |  |  |  | 
CCOC(=O)c1[nH]cnc1/N=N/N(C)N | > 100 | > 100 | > 100 | > 100 |  |  |  |  | 
NC(CCl)=NC1CN2CCC1CC2 (stereo unspecified) | > 100 | > 100 | > 100 | > 100 | > 100 |  |  |  | 
CC1(C)CC(=O)C2=C(C1)NC(SCC(=O)O)=C(C#N)C2c1ccc(Br)cc1 (stereo unspecified) | > 100 | > 100 | > 100 | > 100 |  |  |  |  | 
O=c1[nH]c(=S)c2cc3c(=S)[nH]c(=O)n(CCC(c4ccccc4)(c4ccccc4)c4ccccc4)c3nc2n1CCC(c1ccccc1)(c1ccccc1)c1ccccc1 |  | > 100 | > 100 | > 100 | > 100 |  |  |  | 
CC(C)=CC(C)C(C(O)CCC1(c2ccoc2)OCCO1)S(=O)(=O)c1ccccc1 (stereo unspecified) | > 100 | > 100 | > 100 | > 100 |  |  |  |  | 
OCc1c2c(cc3c1CC1(C3)Cc3cc4c(c(CO)c3C1)CCC4)CCC2 | 28.7 | 36.9 |  |  | 21.9 |  |  |  | 
O=c1c(/C=C/c2c(O)ccc3ccccc23)nnc2sc(-c3cccc([N+](=O)[O-])c3)nn12 | > 100 | > 100 |  | > 100 | > 100 |  |  |  | 
O=c1[nH]nc(Cc2ccccc2)n1/N=C/c1ccc([N+](=O)[O-])o1 | > 100 | 3.8 | > 100 | 17.6 | > 100 |  |  |  | 

Structure (SMILES) | TGI (LOX IMVI melanoma) [µM] | TGI (MDA-MB-435) [µM] | TGI (NCI-H460 lung) [µM] | TGI (SK-MEL-28 melanoma) [µM] | TGI (K-562 leukemia) [µM] | GI50 (K-562 leukemia) [µM] | GI50 (LOX IMVI melanoma) [µM] | GI50 (NCI-H460 lung) [µM] | GI50 (SK-MEL-28 melanoma) [µM]
[N-]=[N+]=NC1=NNC2(C(=O)N1)c1ccccc1-c1ccccc12 | > 100 | 33.1 | > 100 | > 100 | > 100 |  |  |  | 
OCCN1CN(c2nc(N3CN(CCO)C3)nc(N3CN(CCO)C3)n2)C1 | 33.5 | 32.4 | 36.1 | 37.3 | 87.3 |  |  |  | 
O=C(O)C(F)(F)C(F)(F)C(F)(F)C(F)(F)C(=O)O | > 100 | > 100 | > 100 | > 100 | > 100 |  |  |  | 
Cc1c(C)c2c(c(N)c1C#N)C(=O)N(OS(=O)(=O)c1ccccc1)C2=O | 55.1 | 58.8 | > 100 | 67.3 | 43.4 |  |  |  | 
O=c1[nH]c2nccnc2c2c([N+](=O)[O-])cccc12 | > 100 | > 100 | > 100 | > 100 | > 100 |  |  |  | 
Cc1c(NC(=S)N/N=C\C(=N/NC(=S)Nc2c(C)n(C)n(-c3ccccc3)c2=O)c2ccccc2)c(=O)n(-c2ccccc2)n1C |  | > 100 | > 100 |  |  |  |  |  | 
COc1ccc(C2c3cc4c(cc3OC(NNC(N)=O)C2C)OCO4)cc1 (stereo unspecified) | > 100 | 8.2 | 98.9 | > 100 | > 34.9 |  |  |  | 
COC(=O)c1c(O)ccc2c1c1c(n2Cc2ccc(OC)cc2)C(=O)c2ccccc2C1=O | 23.2 | 22.3 | 33.3 | 37.4 | 20 |  |  |  | 
O=C1CSC(c2cccc(Cl)c2)N1c1c(O)c(Cl)cc(Br)c1Cl (stereo unspecified) | 29.8 | 31.9 | > 100 | > 100 | > 100 |  |  |  | 
c1ccc2c(c1)CCN(C1=NCCO1)C2 | > 10 | > 10 | > 10 | > 10 | > 10 |  |  |  | 
CN(C)c1ccc(/C=N/n2c(-c3ccccc3)nc3ccccc3c2=O)cc1 | > 100 | > 100 | > 100 | > 100 |  |  |  |  | 
O=c1[nH]nc(-c2ccc([N+](=O)[O-])cc2)n1/N=C/c1ccc([N+](=O)[O-])cc1 | 34.4 | > 100 | > 100 | > 100 | > 100 |  |  |  | 
C/C=C1\CN2CCC34c5ccccc5N(C)C35OCC4(C(=O)OC)C1CC25 (stereo unspecified) | 58.3 | > 100 | 64.8 | > 100 | > 100 |  |  |  | 
CN(C)Cc1cc(C(C)(C)C)cc(CNC2CCCCC2)c1O | 76.5 | > 100 | 44.6 | > 100 | 76.2 |  |  |  | 
O=c1c2ncn(C3CCCCO3)c2n(-c2ccccc2)c(=S)n1-c1ccccc1 (stereo unspecified) | > 100 | > 100 | > 100 | > 100 | > 100 |  |  |  | 
CC(=O)[C@H]1CC[C@H]2[C@@H]3CCC4=CC(=O)CC[C@]4(C)[C@H]3CC[C@]12C | 33.3 | 39.3 | 42.4 | 37.7 | 43.2 |  |  |  | 
COc1cc(C(=O)O[C@H](C(=O)NCCNC(=O)[C@@H](OC(=O)c2cc(OC)cc3c(C)cccc23)[C@]2(C)CO2)[C@]2(C)CO2)c2cccc(C)c2c1 |  | 0.696 | 0.359 |  | 15.3 | < 0.0193 | < 0.01 | < 0.0214 | 0.0524
